Measured values: ChEMBL document CHEMBL5390254, “Discovery and Optimization of Novel hDHODH Inhibitors for the Treatment of Inflammatory Bowel Disease” (J Med Chem, 2023)
Active and inactive are the calls of the source. No cut-off for these calls is given here.

Columns and labels:
[1] = AUCt in Sprague-Dawley rat at 5 mg/kg, iv and measured upto 48 hrs by LC-MS/MS analysis; assay type: ADME, organism-based; design: dose 5 mg/kg, time < 48 hrs, route iv; conditions: in vivo
[2] = test system: Mus musculus; experiment: Anti-inflammatory activity against DSS-induced acute ulcerative colitis in C57BL/6 mouse model assessed as decrease in IL-6 mRNA expression level in colon at 40 mg/kg, po QD for 6 days by RT-PCR analysis; assay type: functional, organism-based; conditions: time 6.0 day
[3] = Acute toxicity in BALB/c mouse assessed as body weight loss at 600 mg/kg,po and measured for 14 days; assay type: organism-based; conditions: in vivo, 336 h, time 14 day
[4] = Clearance in Sprague-Dawley rat at 5 mg/kg, iv and measured upto 48 hrs by LC-MS/MS analysis; assay type: ADME, organism-based; conditions: in vivo
[5] = Tmax in Sprague-Dawley rat at 15 mg/kg, po and measured upto 48 hrs by LC-MS/MS analysis; assay type: ADME, organism-based; conditions: in vivo
[6] = Acute toxicity in BALB/c mouse assessed as changes in RBC level in blood at 600 mg/kg,po and measured after 14 days by hematology test; assay type: organism-based, Erythrocyte; conditions: in vivo, 336 h, time 14 day
[7] = Acute toxicity in BALB/c mouse assessed as tissue damage in liver at 600 mg/kg,po and measured after 14 days by hematoxylin and eosin staining based microscopy; assay type: organism-based; conditions: in vivo, 336 h, time 14 day
[8] = Apparent volume of distribution during terminal phase in Sprague-Dawley rat at 15 mg/kg, po and measured upto 48 hrs by LC-MS/MS analysis; assay type: ADME, organism-based; conditions: in vivo, read-out: Vz/F
[9] = test system: Mus musculus; experiment: Anti-inflammatory activity against DSS-induced acute ulcerative colitis in C57BL/6 mouse model assessed as decrease in body weight loss at 40 mg/kg, po QD for 6 days (Rvb= 25.6%); assay type: functional; design: scale not given: the % may be the effect or the level left; conditions: time 6 day
[10] = test system: Mus musculus; experiment: Anti-inflammatory activity against DSS-induced acute ulcerative colitis in C57BL/6 mouse model assessed as decrease in IL-1beta protein level in colon at 20 to 80 mg/kg, po QD for 6 days by ELISA; assay type: functional, organism-based; conditions: dose 20-80 mg/kg, time 6.0 day
[11] = Acute toxicity in BALB/c mouse assessed as changes in AST level in serum at 600 mg/kg,po and measured after 14 days by Biochemistry analysis; assay type: organism-based; conditions: in vivo, 336 h, time 14 day
[12] = test system: Mus musculus; experiment: Anti-inflammatory activity against DSS-induced acute ulcerative colitis in C57BL/6 mouse model assessed as decrease in body weight loss at 40 mg/kg, po QD for 6 days (Rvb= -13.4%); assay type: functional; design: scale not given: the % may be the effect or the level left; conditions: time 6 day
[13] = Metabolic stability in human liver microsomes assessed as intrinsic clearance at 3 uM incubated upto 90 mins in presence of NADPH by LC-MS/MS analysis; assay type: ADME, Microsome; conditions: read-out: CLH
[14] = test system: Mus musculus; experiment: Anti-inflammatory activity against DSS-induced acute ulcerative colitis in C57BL/6 mouse model assessed as increase in colon length at 20 mg/kg, po QD for 6 days (Rvb= 5.3cm); assay type: functional; conditions: time 6 day
[15] = Acute toxicity in BALB/c mouse assessed as changes in general health status at 600 mg/kg,po and measured for 14 days; assay type: organism-based; conditions: in vivo, 336 h, time 14 day
[16] = test system: Mus musculus; experiment: Anti-inflammatory activity against DSS-induced acute ulcerative colitis in C57BL/6 mouse model assessed as recovery in colon damage at 20 to 80 mg/kg, po QD for 6 days by H and E staining based microscopy; assay type: functional, organism-based; conditions: dose 20-80 mg/kg, time 6.0 day
[17] = Acute toxicity in BALB/c mouse assessed as changes in ALT level in serum at 600 mg/kg,po and measured after 14 days by Biochemistry analysis; assay type: organism-based; conditions: in vivo, 336 h, time 14 day
[18] = Cmax in Sprague-Dawley rat at 5 mg/kg, iv and measured upto 48 hrs by LC-MS/MS analysis; assay type: ADME, organism-based; design: time < 48 hrs, dose 5 mg/kg, route iv; conditions: in vivo
[19] = AUCt in Sprague-Dawley rat at 15 mg/kg, po and measured upto 48 hrs by LC-MS/MS analysis; assay type: ADME, organism-based; design: dose 15 mg/kg, time < 48 hrs, route po; conditions: in vivo
[20] = Acute toxicity in BALB/c mouse assessed as changes in CK level in serum at 600 mg/kg,po and measured after 14 days by Biochemistry analysis; assay type: organism-based; conditions: in vivo, 336 h, time 14 day
[21] = Acute toxicity in BALB/c mouse assessed as tissue damage in spleen at 600 mg/kg,po and measured after 14 days by hematoxylin and eosin staining based microscopy; assay type: organism-based; conditions: in vivo, 336 h, time 14 day
[22] = Acute toxicity in BALB/c mouse assessed as changes in LDH level in serum at 600 mg/kg,po and measured after 14 days by Biochemistry analysis; assay type: organism-based; conditions: in vivo, 336 h, time 14 day
[23] = Metabolic stability in human liver microsomes assessed as half life at 3 uM incubated upto 90 mins in presence of NADPH by LC-MS/MS analysis; assay type: ADME, Microsome
[24] = Acute toxicity in BALB/c mouse assessed as changes in ALB level in serum at 600 mg/kg,po and measured after 14 days by Biochemistry analysis; assay type: organism-based; conditions: in vivo, 336 h, time 14 day
[25] = test system: Mus musculus; experiment: Anti-inflammatory activity against DSS-induced acute ulcerative colitis in C57BL/6 mouse model assessed as decrease in colon length shortening at 40 mg/kg, po QD for 6 days (Rvb= 5.5cm); assay type: functional; conditions: time 6 day
[26] = test system: Mus musculus; experiment: Anti-inflammatory activity against DSS-induced acute ulcerative colitis in C57BL/6 mouse model assessed as decrease in DAI score at 20 to 80 mg/kg, po QD for 6 days; assay type: functional, organism-based; conditions: dose 20-80 mg/kg, time 6.0 day
[27] = test system: Mus musculus; experiment: Anti-inflammatory activity against DSS-induced acute ulcerative colitis in C57BL/6 mouse model assessed as decrease in IL-6 production in colon at 40 mg/kg, po QD for 6 days by ELISA; assay type: functional; design: scale not given: the % may be the effect or the level left; conditions: time 6 day
[28] = Acute toxicity in BALB/c mouse assessed as tissue damage in heart at 600 mg/kg,po and measured after 14 days by hematoxylin and eosin staining based microscopy; assay type: organism-based; conditions: in vivo, 336 h, time 14 day
[29] = Metabolic stability in mouse liver microsomes assessed as intrinsic clearance at 3 uM incubated upto 90 mins in presence of NADPH by LC-MS/MS analysis; assay type: ADME, Microsome; conditions: read-out: CLH
[30] = Drug distribution in colon of DSS-induced acute ulcerative colitis in C57BL/6 mouse model at 40 mg/kg,po and measured after 2 hrs by LC-MS/MS analysis; assay type: ADME, organism-based; conditions: in vivo
[31] = Acute toxicity in BALB/c mouse assessed as changes in hematocrit level in blood at 600 mg/kg,po and measured after 14 days by hematology test; assay type: organism-based; conditions: in vivo, 336 h, time 14 day
[32] = Acute toxicity in BALB/c mouse assessed as changes in TP level in serum at 600 mg/kg,po and measured after 14 days by Biochemistry analysis; assay type: organism-based; conditions: in vivo, 336 h, time 14 day
[33] = test system: Mus musculus; experiment: Anti-inflammatory activity against DSS-induced acute ulcerative colitis in C57BL/6 mouse model assessed as increase in colon length at 80 mg/kg, po QD for 6 days (Rvb= 5.3cm); assay type: functional; conditions: time 6 day
[34] = Drug distribution in colon of DSS-induced acute ulcerative colitis in C57BL/6 mouse model at 40 mg/kg,po and measured after 0.5 hrs by LC-MS/MS analysis; assay type: ADME, organism-based; conditions: in vivo
[35] = Half life in Sprague-Dawley rat at 15 mg/kg, po and measured upto 48 hrs by LC-MS/MS analysis; assay type: ADME, organism-based; conditions: in vivo

## Nc1nc(-c2cn(Cc3c(F)cccc3Cl)c3ncccc23)ncc1C1CC1
[1]
  AUC(0-t) at 48 h: 17900 ng·h/mL
[2]
  Activity: Active
[3]
  Activity: Non-Toxic
[4]
  clearance: 5 mL/min/kg
[5]
  Tmax: 2 h
[6]
  Activity: Non-Toxic
[7]
  Activity: Non-Toxic
[8]
  Vd/F: 2.95 L/kg
[9]
  Activity: 7.4%
[10]
  Activity: Dose-Dependent Effect
[11]
  Activity: Non-Toxic
[12]
  Activity: -4.2%
[13]
  CLint scaled at 3 µM: 91.8 mL/min/kg
[14]
  Activity: 6.1 cm
[15]
  Activity: Non-Toxic
[16]
  Activity: Dose-Dependent Effect
[17]
  Activity: Non-Toxic
[18]
  Cmax: 12300 ng/mL
[19]
  AUC(0-t) at 48 h: 11600 ng·h/mL
[20]
  Activity: Non-Toxic
[21]
  Activity: Non-Toxic
[22]
  Activity: Non-Toxic
[23]
  half-life at 3 µM: 0.315 h
[24]
  Activity: Non-Toxic
[25]
  Activity: 7 cm
[26]
  Activity: Dose-Dependent Effect
[27]
  Activity: 77.73%
[28]
  Activity: Non-Toxic
[29]
  CLint scaled at 3 µM: 581 mL/min/kg
[30]
  Drug uptake: Active
[31]
  Activity: Non-Toxic
[32]
  Activity: Non-Toxic
[33]
  Activity: 7.5 cm
[34]
  Drug uptake: Active
[35]
  half-life: 1.6 h
